Assays:
A2780 ovarian cells [1] = test: A2780 Ovarian Cell Proliferation Assay in Lipid Reduced Medium, without Palmitate; assay type: cell-based; conditions: Homo sapiens, A2780; lipid reduced medium, without palmitate, 96 h, MTT; read-out: Proliferation A2780 w/o Palmitate pIC50 (converted)
Procedure: (§1) The biological assays described below correspond to comparative assays for ovarian cell proliferation. […] Compounds active in the absence of palmitate would not be expected to be active in the control.
(§2) 2500 cells were seeded in a 96-well clear well plate in 200 μL RPMI1640 with 10% Fetal Calf Serum (Hyclone), and incubated at 37° C., 5% CO2. Blanks were wells without cells. The next day the culture medium was aspirated and replaced by 160 μL culture medium with 10% Lipid-Reduced Serum (LRS, Hyclone). 20 μL test compound (at concentrations of 30 μM, 10 μM, 3 μM, 1 μM, 0.30 μM, 0.10 μM, 0.03 μM and 0.01 μM)/DMSO dilution followed by 20 μL ethanol-BSA solution were added to a final concentrations of 0.2% DMSO, 0.2% fatty-acid-free BSA, 0.25% ethanol. After 96 h incubation an MTT assay was performed. The absorbance was measured at 544 nm on a SPECTRAMAX.
(§3) Raw data generated by the instrument were normalized to % Controlmin values, which were calculated as: % Controlmin=100*(x−mLC)/(mHC−mLC)
(§4) where mLC and mHC were the means of the low control wells and high control wells on the plate, after manual exclusion of outliers. A plot of Controlmin versus test compound concentration was fitted to a 4-parameter logistic curve using a non-linear least squares regression method. From the plot, an IC50 (concentration at which 50% inhibition is achieved) was calculated. pIC50 values were calculated as −log(IC50), when IC50 is expressed in molar units.
(§5) Representative compounds of the present invention were tested according to the procedure as described in Biological Example 3 above, with results as listed in Table BIO-3, below.

A2780 ovarian cells [2] = test: A2780 Ovarian Cell Proliferation Assay in Lipid Reduced Medium, with Palmitate (control); assay type: cell-based; conditions: Homo sapiens, A2780; lipid reduced medium, 25 μM palmitate, 96 h, MTT; read-out: Proliferation A2780 with Palmitate pIC50 (converted)
Procedure: as §1
as §2, with “palmitate-BSA” for “ethanol-BSA”, “DMSO, 25 μM palmitate (Sigma, P0500, 10 mM stock solution in ethanol)” for “DMSO,”, “incubation,” for “incubation”
A best fit curve was fitted by a minimum sum of squares method, plotting Controlmin versus test compound concentration. From the plot, an IC50 (concentration at which 50% inhibition is achieved) was calculated. pIC50 values, presented in the Table below, were calculated as −log(IC50).
as §5

[3] = target: T1, hFASN enzyme (full length) (Homo sapiens, UniProt P49327); test: Fatty Acid Synthase (FASN) Inhibition Scintillation Proximity Assay; assay type: biochemical; conditions: for IC50: mean where tested more than once, ~ = standard error of pIC50 larger than 0.5; for inhibition at 10 µM: read-out: FASN % Effect @1E−05M
T1 construct: 10 μL hFASN enzyme (full length, 300 ng, purified in house); made in house
Procedure: In this assay, inhibition of FASN activity is measured using ^3H-acetyl-CoA and malonyl-CoA as substrates. ^3H-Acetyl CoA is converted to ^3H-palmitate through a series of reactions by the FASN protein, which contains 7 functional domains and carries out 7 enzymatic reactions to ultimately produce ^3H-palmitate. The assay principle is based upon the fact that ^3H-acetyl-CoA is hydrophilic and the end product, ^3H-palmitate is hydrophobic.
10 μL assay buffer (100 mM KH2PO4 pH 7.5, 1 mM DTT) (20 μL in blanks) was added to a 384-well white Opti Plate plate (Perkin Elmer). 0.9 μL test compound (at concentrations of 30 μM, 10 μM, 3 μM, 1 μM, 0.30 μM, 0.10 μM, 0.03 μM and 0.01 μM)/DMSO and 10 μL hFASN enzyme (full length, 300 ng, purified in house) or 10 μL assay buffer was added to the wells. Then 10 μL 450 μM NADPH (Sigma N7505), 18.75 μM [^3H]-acetyl-CoA (Perkin Elmer NET-290L), 150 μM malonyl-CoA (Sigma M4263) were added, mixed and incubated at room temperature for 60 minutes. The reaction was stopped by adding 20 μL Streptavidin coupled imaging beads (25 mg/ml). After incubation for 30 minutes at room temperature in the dark, the 384 well plate was centrifuged at 1500 rpm for 3 minutes and was measured after at least 24 hrs by the LEADseeker™, measuring emission using a 610±20 nm pass filter. (Bays, N. W., et al., “A simplified scintillation proximity assay for fatty acid synthase activity: development and comparison with other FAS activity assays”, J. Biomol. Screen, 2009, pp 636-642, Vol. 14(6).)
as §3, §4

[4] = target: T2, FASN Keto-reductase Domain (Homo sapiens, UniProt P49327); test: Fatty Acid Synthase Keto-Reductase Domain (FASN KR) Inhibition; assay type: biochemical; conditions: mean where tested more than once; read-out: FASN K-R Domain pIC50 (converted)
T2 construct: 10 μL hFASN enzyme (full length, 300 ng, purified in house) and 360 μM NADPH; made in house
Procedure: 10 μL assay buffer (100 mM KH2PO4 pH 7.5) was added to a 384-well clear plate (costar 3702). 0.3 μL compound (at concentrations of 30 μM, 10 μM, 3 μM, 1 μM, 0.30 μM, 0.10 μM, 0.03 μM and 0.01 μM)/DMSO, 10 μL hFASN enzyme (full length, 300 ng, purified in house) and 360 μM NADPH (except in blank) were then added. Then, 10 μL 180 mM ethyl acetoacetate (Aldrich 688983) was added, mixed and immediately thereafter, the absorbance at 340 nm (T1) by Multiscan (Labsystems) was measured. After 20 minutes incubation at room temperature the plate was measured again (T2).
The decrease in absorbance was calculated as (Absorbance before incubation T1)−(Absorbance following incubation T2).
as §3, §4

T1 sequence (P49327 whole entry): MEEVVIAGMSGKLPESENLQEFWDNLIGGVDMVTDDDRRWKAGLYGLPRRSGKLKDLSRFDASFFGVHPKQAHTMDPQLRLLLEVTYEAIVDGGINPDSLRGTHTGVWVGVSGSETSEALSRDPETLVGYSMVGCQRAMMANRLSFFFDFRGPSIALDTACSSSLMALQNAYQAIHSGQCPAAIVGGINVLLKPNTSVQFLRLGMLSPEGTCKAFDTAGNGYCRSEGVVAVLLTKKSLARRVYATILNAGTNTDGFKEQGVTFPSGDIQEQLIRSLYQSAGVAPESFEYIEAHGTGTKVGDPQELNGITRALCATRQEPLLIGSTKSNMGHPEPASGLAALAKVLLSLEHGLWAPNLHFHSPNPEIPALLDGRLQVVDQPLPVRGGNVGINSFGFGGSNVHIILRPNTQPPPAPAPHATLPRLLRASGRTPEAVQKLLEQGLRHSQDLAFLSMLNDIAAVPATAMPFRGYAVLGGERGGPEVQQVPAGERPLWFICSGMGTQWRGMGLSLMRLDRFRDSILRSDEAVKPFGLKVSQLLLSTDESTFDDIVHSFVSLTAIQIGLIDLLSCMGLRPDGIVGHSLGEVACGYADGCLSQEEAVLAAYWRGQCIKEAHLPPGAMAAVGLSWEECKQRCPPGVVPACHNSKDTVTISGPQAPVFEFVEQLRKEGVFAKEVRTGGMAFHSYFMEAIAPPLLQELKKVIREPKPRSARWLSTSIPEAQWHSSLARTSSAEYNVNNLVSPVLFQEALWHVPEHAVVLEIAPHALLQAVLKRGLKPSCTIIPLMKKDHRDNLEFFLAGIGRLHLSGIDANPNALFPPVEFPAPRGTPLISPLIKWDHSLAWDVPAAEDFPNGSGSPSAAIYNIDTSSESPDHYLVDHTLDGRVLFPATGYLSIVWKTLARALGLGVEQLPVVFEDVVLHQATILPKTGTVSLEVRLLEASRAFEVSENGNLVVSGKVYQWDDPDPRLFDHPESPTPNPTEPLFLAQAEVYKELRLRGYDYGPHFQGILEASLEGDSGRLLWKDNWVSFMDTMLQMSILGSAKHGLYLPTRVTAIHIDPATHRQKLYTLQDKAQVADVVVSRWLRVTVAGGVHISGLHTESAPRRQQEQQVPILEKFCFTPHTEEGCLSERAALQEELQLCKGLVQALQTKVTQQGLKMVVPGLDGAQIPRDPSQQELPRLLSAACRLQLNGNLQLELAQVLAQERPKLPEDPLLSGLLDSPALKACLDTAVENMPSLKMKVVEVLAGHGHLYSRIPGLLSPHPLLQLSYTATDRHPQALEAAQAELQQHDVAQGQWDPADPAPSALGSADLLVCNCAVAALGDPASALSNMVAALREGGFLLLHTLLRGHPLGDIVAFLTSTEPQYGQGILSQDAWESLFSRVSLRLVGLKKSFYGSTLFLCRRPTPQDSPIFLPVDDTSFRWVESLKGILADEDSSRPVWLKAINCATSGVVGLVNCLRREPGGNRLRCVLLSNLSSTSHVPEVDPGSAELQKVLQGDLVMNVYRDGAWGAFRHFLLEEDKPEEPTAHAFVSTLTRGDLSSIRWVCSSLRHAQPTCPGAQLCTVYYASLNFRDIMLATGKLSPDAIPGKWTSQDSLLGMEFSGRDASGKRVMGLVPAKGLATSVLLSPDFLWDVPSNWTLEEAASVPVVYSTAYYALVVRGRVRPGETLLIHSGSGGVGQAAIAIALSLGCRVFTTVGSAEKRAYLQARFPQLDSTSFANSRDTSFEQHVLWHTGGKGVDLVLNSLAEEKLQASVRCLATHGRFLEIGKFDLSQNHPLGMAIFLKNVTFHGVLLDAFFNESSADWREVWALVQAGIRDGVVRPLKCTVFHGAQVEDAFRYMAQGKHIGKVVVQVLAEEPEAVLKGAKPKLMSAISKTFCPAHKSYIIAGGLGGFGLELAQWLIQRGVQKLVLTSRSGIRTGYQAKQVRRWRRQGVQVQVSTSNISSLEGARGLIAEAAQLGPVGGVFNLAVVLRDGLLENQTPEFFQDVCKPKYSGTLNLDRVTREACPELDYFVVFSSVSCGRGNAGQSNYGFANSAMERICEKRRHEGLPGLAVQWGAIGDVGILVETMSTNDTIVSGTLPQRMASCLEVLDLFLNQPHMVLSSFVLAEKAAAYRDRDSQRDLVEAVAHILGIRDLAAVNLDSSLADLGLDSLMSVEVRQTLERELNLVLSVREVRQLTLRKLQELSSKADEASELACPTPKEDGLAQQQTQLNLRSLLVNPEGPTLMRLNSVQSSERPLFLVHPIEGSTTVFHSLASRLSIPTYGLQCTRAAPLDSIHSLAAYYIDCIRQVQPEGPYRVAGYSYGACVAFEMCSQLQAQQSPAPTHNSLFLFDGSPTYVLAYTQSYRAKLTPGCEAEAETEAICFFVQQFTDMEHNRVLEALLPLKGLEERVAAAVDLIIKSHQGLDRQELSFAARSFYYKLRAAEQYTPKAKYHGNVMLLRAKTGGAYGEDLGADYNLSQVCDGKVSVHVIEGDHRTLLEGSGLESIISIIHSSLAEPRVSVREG
T2 sequence (P49327 whole entry, the tested form may be a part): as the sequence (P49327 whole entry) above

| SMILES | IC50 (A2780 ovarian cells [1]) [nM] | IC50 (A2780 ovarian cells [2]) [nM] | IC50 [3] [nM] | inhibition at 10 µM [3] [%] | IC50 [4] [nM] |
| --- | --- | --- | --- | --- | --- |
| Cc1ccc(C(=O)N2CC(c3ccc(-c4cccnc4)cc3)C2)cc1NC(=O)c1ccc(NC(C)C)nc1 [Compound 10, 6-(isopropylamino)-N-(2-methyl-5-(3-(4-(pyridin-3-yl)phenyl)azetidine-1-carbonyl)phenyl)nicotinamide] | ~57.5 | > 15100 | 32.4 | 103 | 44.7 |
| Cc1ccc(C(=O)N2CC(c3ccc(-c4cccc5ncccc45)cc3)C2)cc1NC(=O)c1ccc(NC(C)C)nc1 [Compound 12, 6-(isopropylamino)-N-(2-methyl-5-(3-(4-(quinolin-5-yl)phenyl)azetidine-1-carbonyl)phenyl)nicotinamide] | 49 | 2240 | 38.9 | 111 | 22.9 |
| CCC(=O)N[C@@H]1CC[C@H](C(=O)Nc2cc(C(=O)N3CCC(c4ccc(-c5ccnn5C)cc4)CC3)ccc2C)C1 [Compound 13, (1S,3R)—N-(2-methyl-5-(4-(4-(1-methyl-1H-pyrazol-5-yl)phenyl)piperidine-1-carbonyl)phenyl)-3-propionamidocyclopentanecarboxamide] | 603 | > 10000 | 126 | 99 | 229 |
| Cc1ccc(C(=O)N2CC(c3ccc(-c4ccc5c(cnn5C)c4)cc3)C2)cc1NC(=O)c1ccc(NC(C)C)nc1 [Compound 16, 6-(isopropylamino)-N-(2-methyl-5-(3-(4-(1-methyl-1H-indazol-5-yl)phenyl)azetidine-1-carbonyl)phenyl)nicotinamide] | 1410 | > 10000 | 95.5 | 106 | 95.5 |
| Cc1ccc(C(=O)N2CCC(c3ccc4c(c3)NC(=O)CC4)CC2)cc1NC(=O)c1ccc(Cl)nc1 [Compound 23, 6-chloro-N-(2-methyl-5-(4-(2-oxo-1,2,3,4-tetrahydroquinolin-7-yl)piperidine-1-carbonyl)phenyl)nicotinamide] | 1120 | ~10000 | 589 | 93 | 1170 |
| Cc1ccc(C(=O)N2CC(c3ccc(-c4cnn(C)c4)cc3)C2)cc1NC(=O)c1ccc(NC(C)C)nc1 [Compound 24, 6-(isopropylamino)-N-(2-methyl-5-(3-(4-(1-methyl-1H-pyrazol-4-yl)phenyl)azetidine-1-carbonyl)phenyl)nicotinamide] | 85.1 | > 10000 | 33.9 | 111 | 38.9 |
| Cc1ccc(C(=O)N2CC(c3ccc(-c4ccnn4C)cc3)C2)cc1NC(=O)c1ccc(NC(C)C)nc1 [Compound 25, 6-(isopropylamino)-N-(2-methyl-5-(3-(4-(1-methyl-1H-pyrazol-5-yl)phenyl)azetidine-1-carbonyl)phenyl)nicotinamide] | 34.7 | ~2090 | 28.2 | 109 | 45.7 |
| Cc1ccc(C(=O)N2CC(c3ccc(-c4ccsc4)cc3)C2)cc1NC(=O)c1ccc(NC(C)C)nc1 [Compound 26, 6-(isopropylamino)-N-(2-methyl-5-(3-(4-(thiophen-3-yl)phenyl)azetidine-1-carbonyl)phenyl)nicotinamide] | ~2290 | > 10000 | 32.4 | 105 | 40.7 |
| Cc1ccc(C(=O)N2CCC(c3ccc4ccncc4c3)CC2)cc1NC(=O)c1ccc(NC(C)C)nc1 [Compound 28, 6-(isopropylamino)-N-(5-(4-(isoquinolin-7-yl)piperidine-1-carbonyl)-2-methylphenyl)nicotinamide] | ~204 | 2450 | 174 | 101 | 282 |
| Cc1ccc(C(=O)N2CC(c3ccc(-c4ccc5cnccc5c4)cc3)C2)cc1NC(=O)c1ccc(NC(C)C)nc1 [Compound 29, 6-(isopropylamino)-N-(5-(3-(4-(isoquinolin-6-yl)phenyl)azetidine-1-carbonyl)-2-methylphenyl)nicotinamide] | 174 | > 15100 | 33.9 | 103 | 29.5 |
| Cc1ccc(C(=O)N2CC(c3ccc(-c4ccncc4)cc3)C2)cc1NC(=O)c1ccc(NC(C)C)nc1 [Compound 31, 6-(isopropylamino)-N-(2-methyl-5-(3-(4-(pyridin-4-yl)phenyl)azetidine-1-carbonyl)phenyl)nicotinamide] | 25.1 | 1660 | ~17.8 | 104 | 52.5 |
| Cc1ccc(C(=O)N2CCC(c3ccc4c(c3)NC(=O)CC4)CC2)cc1NC(=O)c1ccc(NC(C)C)nc1 [Compound 35, 6-(isopropylamino)-N-(2-methyl-5-(4-(2-oxo-1,2,3,4-tetrahydroquinolin-7-yl)piperidine-1-carbonyl)phenyl)nicotinamide] | 676 | ~8910 | 437 | 99 | 794 |
| Cc1ccc(C(=O)N2CCC(c3ccc4ccncc4c3)CC2)cc1NC(=O)c1ccc(Cl)nc1 [Compound 37, 6-chloro-N-(5-(4-(isoquinolin-7-yl)piperidine-1-carbonyl)-2-methylphenyl)nicotinamide] | 617 | 3390 | 537 | 94 | 562 |
| Cc1ccc(C(=O)N2CC(c3ccc(-c4ccnc5ccccc45)cc3)C2)cc1NC(=O)c1ccc(NC(C)C)nc1 [Compound 39, 6-(isopropylamino)-N-(2-methyl-5-(3-(4-(Quinolin-4-yl)phenyl)azetidine-1-carbonyl)phenyl)nicotinamide] | 33.9 | 5500 | 30.2 | 111 | 16.6 |
